Reference: patent US9938261B2, “Heterocyclic compounds and methods of use thereof” (AMBIT BIOSCIENCES CORPORATION, priority 2011, dated 2018)
Counter-ions that a name gives are not always drawn. Like-named read-outs stand apart in the source and are kept apart here.

What was measured:
FLT3 = biological target: T1, FLT3 (Homo sapiens, UniProt P36888); experiment: Competition binding assay, FLT3 Kd
T1 construct: made in house
T1 sequence (P36888 27-993): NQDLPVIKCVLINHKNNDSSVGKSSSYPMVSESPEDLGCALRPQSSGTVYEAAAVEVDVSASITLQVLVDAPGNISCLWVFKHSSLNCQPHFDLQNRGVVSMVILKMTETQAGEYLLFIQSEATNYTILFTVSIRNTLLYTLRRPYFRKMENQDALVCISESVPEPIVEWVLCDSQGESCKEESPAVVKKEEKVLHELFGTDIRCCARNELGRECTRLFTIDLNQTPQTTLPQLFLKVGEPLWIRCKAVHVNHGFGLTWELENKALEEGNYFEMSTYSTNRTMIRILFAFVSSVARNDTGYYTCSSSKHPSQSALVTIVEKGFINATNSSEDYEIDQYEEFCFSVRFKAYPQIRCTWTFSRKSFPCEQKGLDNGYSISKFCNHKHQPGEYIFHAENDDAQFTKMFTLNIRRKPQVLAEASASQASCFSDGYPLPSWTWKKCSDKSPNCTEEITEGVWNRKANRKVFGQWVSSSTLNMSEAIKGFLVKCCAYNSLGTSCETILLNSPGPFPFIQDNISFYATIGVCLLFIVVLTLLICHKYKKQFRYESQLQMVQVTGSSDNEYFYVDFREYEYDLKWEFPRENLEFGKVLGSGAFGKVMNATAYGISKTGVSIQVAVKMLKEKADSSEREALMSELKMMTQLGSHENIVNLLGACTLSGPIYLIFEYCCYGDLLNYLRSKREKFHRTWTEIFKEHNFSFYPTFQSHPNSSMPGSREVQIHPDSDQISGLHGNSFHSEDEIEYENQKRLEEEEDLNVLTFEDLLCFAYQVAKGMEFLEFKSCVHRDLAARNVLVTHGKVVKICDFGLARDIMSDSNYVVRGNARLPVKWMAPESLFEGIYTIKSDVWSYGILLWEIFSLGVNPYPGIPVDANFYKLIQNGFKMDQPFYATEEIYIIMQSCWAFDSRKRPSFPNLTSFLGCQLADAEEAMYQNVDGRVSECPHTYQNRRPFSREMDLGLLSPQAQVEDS
Method in brief: (§1)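 Phage-fused or HEK-293/DNA-tagged kinase + ligand-coated streptavidin beads + compound, 1 h RT with shaking. Wash, elute with free ligand 30 min RT, qPCR of eluted kinase. Kd: 11-point 3-fold series.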

CSF1R = CSF1R (Homo sapiens, UniProt P07333); experiment: Competition binding assay, CSF1R Kd; design: made in house
Method in brief: as §1

M-NFS-60 cells = experiment: M-NFS-60 cell proliferation assay (Alamar Blue); assay type: cell-based, mouse; details: read-out: CSF1R M-NFS-60 CTB:IC50
Method in brief: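 Alamar Blue reduction (3 h; 560/590 nm) measured viability after 72 h, 37 °C treatment with nine half-log compound concentrations at 0.5% DMSO. Cells: M-CSF-dependent (20 ng/mL) murine M-NFS-60 in RPMI plus 10% FBS. IC50s, averaged from duplicates, reflect half-maximal inhibition of proliferation relative to control.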

KIT = biological target: T2, KIT (Homo sapiens, UniProt P10721); experiment: Competition binding assay, KIT Kd
T2 construct: made in house
Method in brief: as §1

[1] = biological target: kinase panel containing either 386 or 392 distinct kinases; experiment: Kinase selectivity score S10 from competition binding panel
Method in brief: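 S10 is the number of kinases with percent-of-control under 10, divided by all distinct wild-type kinases tested, from a single 10 μM concentration. Binding measured by qPCR of kinase recovered from ligand-coated beads after 1 h equilibrium at room temperature; kinases were phage fusions or DNA-tagged HEK-293 products.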

[2] = Mus musculus, M-NFS-60 cell proliferation
[3] = 10 μM, panel of 386 or 392 distinct kinases
[4] = 72 hours incubation, M-CSF 20 ng/mL
[5] = compounds at 10 μM, 386 or 392 distinct kinases

T2 sequence (P10721 26-976): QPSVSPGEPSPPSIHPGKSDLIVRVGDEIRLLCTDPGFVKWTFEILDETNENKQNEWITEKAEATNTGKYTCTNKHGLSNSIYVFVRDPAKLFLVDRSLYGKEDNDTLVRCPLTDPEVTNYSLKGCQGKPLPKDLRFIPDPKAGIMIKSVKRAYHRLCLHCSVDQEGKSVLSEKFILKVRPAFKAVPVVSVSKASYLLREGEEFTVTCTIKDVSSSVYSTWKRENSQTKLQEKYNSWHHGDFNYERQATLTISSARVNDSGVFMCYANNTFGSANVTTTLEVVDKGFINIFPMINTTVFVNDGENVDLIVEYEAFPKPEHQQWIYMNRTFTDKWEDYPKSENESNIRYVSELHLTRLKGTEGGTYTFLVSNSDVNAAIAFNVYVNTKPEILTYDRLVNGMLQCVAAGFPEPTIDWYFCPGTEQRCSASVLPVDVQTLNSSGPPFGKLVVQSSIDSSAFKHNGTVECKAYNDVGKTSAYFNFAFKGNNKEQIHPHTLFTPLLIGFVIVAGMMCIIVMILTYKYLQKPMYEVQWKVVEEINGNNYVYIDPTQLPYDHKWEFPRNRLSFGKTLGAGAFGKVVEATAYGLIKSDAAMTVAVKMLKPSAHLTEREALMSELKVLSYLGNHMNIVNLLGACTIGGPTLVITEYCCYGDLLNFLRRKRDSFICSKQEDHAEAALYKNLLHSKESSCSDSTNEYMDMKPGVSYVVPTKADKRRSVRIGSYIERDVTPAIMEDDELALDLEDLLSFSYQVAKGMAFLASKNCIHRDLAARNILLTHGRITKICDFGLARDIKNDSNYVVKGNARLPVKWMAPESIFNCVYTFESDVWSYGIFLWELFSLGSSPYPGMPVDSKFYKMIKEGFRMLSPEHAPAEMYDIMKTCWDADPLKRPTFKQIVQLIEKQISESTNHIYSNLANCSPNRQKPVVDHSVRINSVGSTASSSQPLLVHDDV
Sequence of CSF1R (P07333 20-972): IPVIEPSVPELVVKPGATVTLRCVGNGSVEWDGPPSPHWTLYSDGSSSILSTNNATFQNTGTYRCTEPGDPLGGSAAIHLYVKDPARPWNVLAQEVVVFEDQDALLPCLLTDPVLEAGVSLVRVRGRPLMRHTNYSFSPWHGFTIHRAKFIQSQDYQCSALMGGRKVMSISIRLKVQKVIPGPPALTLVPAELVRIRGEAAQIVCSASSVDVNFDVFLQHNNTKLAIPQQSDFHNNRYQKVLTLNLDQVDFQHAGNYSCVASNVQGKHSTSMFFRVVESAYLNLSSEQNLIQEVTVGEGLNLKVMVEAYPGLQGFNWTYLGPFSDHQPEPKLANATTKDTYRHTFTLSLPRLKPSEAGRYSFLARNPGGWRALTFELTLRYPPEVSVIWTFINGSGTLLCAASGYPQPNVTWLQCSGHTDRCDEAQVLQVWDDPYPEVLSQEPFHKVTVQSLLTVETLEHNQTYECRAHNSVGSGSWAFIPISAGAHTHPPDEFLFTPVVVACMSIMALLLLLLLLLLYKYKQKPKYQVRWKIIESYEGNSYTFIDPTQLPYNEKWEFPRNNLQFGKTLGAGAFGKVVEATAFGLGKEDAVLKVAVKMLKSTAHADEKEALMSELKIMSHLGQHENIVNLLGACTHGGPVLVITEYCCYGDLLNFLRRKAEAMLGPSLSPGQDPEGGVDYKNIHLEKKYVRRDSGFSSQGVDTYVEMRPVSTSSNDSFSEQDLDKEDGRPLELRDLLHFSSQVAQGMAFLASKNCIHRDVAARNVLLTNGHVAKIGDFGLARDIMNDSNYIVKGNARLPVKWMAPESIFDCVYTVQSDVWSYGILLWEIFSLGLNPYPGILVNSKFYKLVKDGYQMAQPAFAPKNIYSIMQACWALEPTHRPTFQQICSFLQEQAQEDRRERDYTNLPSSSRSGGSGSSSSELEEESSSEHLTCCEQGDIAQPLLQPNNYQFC

C=Cc1cc(F)c2c(c1)ncn2Cc1ccc2nc(N[C@@H]3CCCC[C@H]3O)sc2c1 [Example 207, (1R,2R)-2-((6-((7-fluoro-5-vinyl-1H-benzo[d]imidazol-1-yl)methyl)benzo[d]thiazol-2-yl)amino)cyclohexanol]
Kd (FLT3; competition binding): ≤ 200 nM
Kd (CSF1R; competition binding): 5 to 20 nM
IC50 (M-NFS-60 cells; [2]): ≤ 50 nM
Kd (KIT; competition binding): ≤ 100 nM
Kinase specificity S(10) [1, 3]: B (0.01<B≤0.02)

O[C@@H]1CCCC[C@H]1Nc1nc2ccc(Cn3cnc4cc(C5=CCOCC5)cc(F)c43)cc2s1 [Example 208, (1R,2R)-2-((6-((5-(3,6-dihydro-2H-pyran-4-yl)-7-fluoro-1H-benzo[d]imidazol-1-yl)methyl)benzo[d]thiazol-2-yl)amino)cyclohexanol]
Kd (FLT3; competition binding): ≤ 200 nM
Kd (CSF1R; competition binding): ≤ 5 nM
IC50 (M-NFS-60 cells; [2]): ≤ 50 nM
Kd (KIT; competition binding): ≤ 100 nM
Kinase specificity S(10) [1, 3]: B (0.01<B≤0.02)

O[C@@H]1CCCC[C@H]1Nc1nc2ccc(Cn3cnc4cc(N5CCOCC5)ccc43)cc2s1 [Example 209, (1R,2R)-2-((6-((5-morpholino-1H-benzo[d]imidazol-1-yl)methyl)benzo[d]thiazol-2-yl)amino)cyclohexanol]
Kd (FLT3; competition binding): 200 to 1000 nM
Kd (CSF1R; competition binding): 5 to 20 nM
IC50 (M-NFS-60 cells; [2]): 50 to 400 nM
Kd (KIT; competition binding): 100 to 500 nM
Kinase specificity S(10) [1, 3]: A (A≤0.01)

O=C1CCCCN1c1ccc2c(c1)ncn2Cc1ccc2nc(N[C@@H]3CCCC[C@H]3O)sc2c1 [Example 210, 1-(1-((2-(((1R,2R)-2-hydroxycyclohexyl)amino)benzo[d]thiazol-6-yl)methyl)-1H-benzo[d]imidazol-5-yl)piperidin-2-one]
Kd (FLT3; competition binding): > 5000 nM
Kd (CSF1R; competition binding): 20 to 50 nM
IC50 (M-NFS-60 cells; [2]): > 1500 nM
Kd (KIT; competition binding): 500 to 2000 nM
Kinase specificity S(10) [1, 3]: A (A≤0.01)

O[C@@H]1CCCC[C@H]1Nc1nc2ccc(Cn3cnc4cc(-c5cc[nH]n5)ccc43)cc2s1 [Example 211, (1R,2R)-2-((6-((5-(1H-pyrazol-3-yl)-1H-benzo[d]imidazol-1-yl)methyl)benzo[d]thiazol-2-yl)amino)cyclohexanol]
Kd (FLT3; competition binding): ≤ 200 nM
Kd (CSF1R; competition binding): ≤ 5 nM
IC50 (M-NFS-60 cells; [2]): ≤ 50 nM
Kd (KIT; competition binding): ≤ 100 nM
Kinase specificity S(10) [1, 3]: C (C>0.02)

O[C@@H]1CCCC[C@H]1Nc1nc2ccc(Cn3cnc4cc(C(F)(F)F)cnc43)cc2s1 [Example 212, (1R,2R)-2-((6-((6-(trifluoromethyl)-3H-imidazo[4,5-b]pyridin-3-yl)methyl)benzo[d]thiazol-2-yl)amino)cyclohexanol]
Kd (FLT3; competition binding): 200 to 1000 nM
Kd (CSF1R; competition binding): 5 to 20 nM
IC50 (M-NFS-60 cells; [2]): 50 to 400 nM
Kd (KIT; competition binding): ≤ 100 nM
Kinase specificity S(10) [1, 3]: A (A≤0.01)

O[C@@H]1CCCC[C@H]1Nc1nc2ccc(Cc3cnc4cc(-n5ccnc5)ccn34)cc2s1 [Example 214, (1R,2R)-2-((6-((7-(1H-imidazol-1-yl)imidazo[1,2-a]pyridin-3-yl)methyl)benzo[d]thiazol-2-yl)amino)cyclohexanol]
Kd (FLT3; competition binding): > 5000 nM
Kd (CSF1R; competition binding): ≤ 5 nM
IC50 (M-NFS-60 cells; [2]): 50 to 400 nM
Kd (KIT; competition binding): 100 to 500 nM
Kinase specificity S(10) [1, 3]: B (0.01<B≤0.02)

O[C@@H]1CCCC[C@H]1Nc1nc2ccc(Cc3cnc4cc(-n5nccn5)ccn34)cc2s1 [Example 215, (1R,2R)-2-((6-((7-(2H-1,2,3-triazol-2-yl)imidazo[1,2-a]pyridin-3-yl)methyl)benzo[d]thiazol-2-yl)amino)cyclohexanol]
Kd (FLT3; competition binding): 1000 to 5000 nM
Kd (CSF1R; competition binding): 5 to 20 nM
IC50 (M-NFS-60 cells; [2]): 50 to 400 nM
Kd (KIT; competition binding): 500 to 2000 nM
Kinase specificity S(10) [1, 3]: A (A≤0.01)

C=Cc1ccn2c(Cc3ccc4nc(N[C@@H]5CCCC[C@H]5O)sc4c3)cnc2c1 [Example 216, (1R,2R)-2-((6-((7-vinylimidazo[1,2-a]pyridin-3-yl)methyl)benzo[d]thiazol-2-yl)amino)cyclohexanol]
Kd (FLT3; competition binding): 1000 to 5000 nM
Kd (CSF1R; competition binding): 5 to 20 nM
IC50 (M-NFS-60 cells; [2]): 50 to 400 nM
Kd (KIT; competition binding): 500 to 2000 nM
Kinase specificity S(10) [1, 3]: A (A≤0.01)

C=CCOc1ccn2c(Cc3ccc4nc(N[C@@H]5CCCC[C@H]5O)sc4c3)cnc2c1 [Example 217, (1R,2R)-2-((6-((7-(allyloxy)imidazo[1,2-a]pyridin-3-yl)methyl)benzo[d]thiazol-2-yl)amino)cyclohexanol]
Kd (FLT3; competition binding): 1000 to 5000 nM
Kd (CSF1R; competition binding): 5 to 20 nM
IC50 (M-NFS-60 cells; [2]): 50 to 400 nM
Kd (KIT; competition binding): 500 to 2000 nM
Kinase specificity S(10) [1, 3]: A (A≤0.01)

O[C@@H]1CCCC[C@H]1Nc1nc2ccc(Cc3cnc4cc(-n5ccnn5)ccn34)cc2s1 [Example 218, (1R,2R)-2-((6-((7-(1H-1,2,3-triazol-1-yl)imidazo[1,2-a]pyridin-3-yl)methyl)benzo[d]thiazol-2-yl)amino)cyclohexanol]
Kd (FLT3; competition binding): 1000 to 5000 nM
Kd (CSF1R; competition binding): 5 to 20 nM
IC50 (M-NFS-60 cells; [2]): 50 to 400 nM
Kd (KIT; competition binding): 500 to 2000 nM
Kinase specificity S(10) [1, 3]: A (A≤0.01)

Fc1cnc2c(c1)ncn2Cc1ccc2nc(N[C@@H]3CCCC[C@@H]3Cl)sc2c1 [Example 219, N-((1R,2S)-2-chlorocyclohexyl)-6-((6-fluoro-3H-imidazo[4,5-b]pyridin-3-yl)methyl)benzo[d]thiazol-2-amine]
Kd (FLT3; competition binding): 1000 to 5000 nM
Kd (CSF1R; competition binding): 5 to 20 nM
IC50 (M-NFS-60 cells; [2]): 400 to 1500 nM
Kd (KIT; competition binding): 100 to 500 nM
Kinase specificity S(10) [1, 3]: B (0.01<B≤0.02)

Nc1nccn(Cc2ccc3nc(N[C@@H]4CCCC[C@H]4O)sc3c2)c1=O [Example 220, 3-amino-1-((2-(((1R,2R)-2-hydroxycyclohexyl)amino)benzo[d]thiazol-6-yl)methyl)pyrazin-2(1H)-one acetate salt]
Kd (FLT3; competition binding): > 5000 nM
Kd (CSF1R; competition binding): 20 to 50 nM
IC50 (M-NFS-60 cells; [2]): > 1500 nM
Kd (KIT; competition binding): > 2000 nM
Kinase specificity S(10) [1, 3]: A (A≤0.01)

either (1R,2R)-1-((6-((4-(1-methyl-1H-pyrazol-4-yl)-1H-imidazol-1-yl)methyl)benzo[d]thiazol-2-yl)amino)-2,3-dihydro-1H-inden-2-ol or (1R,2R)-1-((6-((5-(1-methyl-1H-pyrazol-4-yl)-1H-imidazol-1-yl)methyl)benzo[d]thiazol-2-yl)amino)-2,3-dihydro-1H-inden-2-ol [Example 83]
Kd (FLT3): ≤ 200 nM
Kd (CSF1R): ≤ 5 nM
IC50 (M-NFS-60 cells; [4]): 50 to 400 nM
Kd (KIT): 500 to 2000 nM
Kinase specificity S(10) [1, 5]: A (A≤0.01)

either (1R,2R)-2-((6-((3H-imidazo[4,5-b]pyridin-3-yl)methyl)benzo[d]thiazol-2-yl)amino)-1-methylcyclohexanol or (1S,2R)-2-((6-((3H-imidazo[4,5-b]pyridin-3-yl)methyl)benzo[d]thiazol-2-yl)amino)-1-methylcyclohexanol [Example 60]
Kd (FLT3): 1000 to 5000 nM
Kd (CSF1R): 5 to 20 nM
IC50 (M-NFS-60 cells; [4]): 50 to 400 nM
Kd (KIT): 100 to 500 nM
Kinase specificity S(10) [1, 5]: B (0.01<B≤0.02)

either (1S,2R)-2-((6-((3H-imidazo[4,5-b]pyridin-3-yl)methyl)benzo[d]thiazol-2-yl)amino)-1-methylcyclohexanol or (1R,2R)-2-((6-((3H-imidazo[4,5-b]pyridin-3-yl)methyl)benzo[d]thiazol-2-yl)amino)-1-methylcyclohexanol [Example 59]
Kd (FLT3): 1000 to 5000 nM
Kd (CSF1R): 5 to 20 nM
IC50 (M-NFS-60 cells; [4]): 50 to 400 nM
Kd (KIT): 100 to 500 nM
Kinase specificity S(10) [1, 5]: C (C>0.02)
